Experiments:
[1] = Inhibition of tubulin assembly
NCI/ADR-RES = assay: Cytotoxicity against human NCI/ADR-RES cells; type: functional; settings: read-out: ED50 (the source's name)
MCF7 = assay: Cytotoxicity against human MCF7 cells; type: functional; settings: read-out: ED50 (the source's name)

ED50 [1] [nM] | Compound | EC50 (NCI/ADR-RES) [nM] | EC50 (MCF7) [nM]
2200 | CC(=O)O[C@H]1C(=O)[C@@]2(C)[C@H]([C@H](OC(=O)c3ccccc3)[C@]3(O)C[C@H](OC(=O)[C@H](O)[C@@H](NC(=O)OC(C)(C)C)C(C)(C)CO)C(C)=C1C3(C)C)[C@]1(OC(C)=O)CO[C@@H]1C[C@@H]2O | 12500 | 560
1200 | CC(=O)O[C@H]1C(=O)[C@@]2(C)[C@H]([C@H](OC(=O)c3ccccc3)[C@]3(O)C[C@H](OC(=O)[C@H](O)[C@@H](NC(=O)c4ccccc4)c4ccccc4)C(C)=C1C3(C)C)[C@]1(OC(C)=O)CO[C@@H]1C[C@@H]2O [PACLITAXEL] | 2000 | 2.1
